Measured values: the NIST ThermoML archive (doi:10.1016/j.jct.2018.08.005)

Test: xn = mol fraction of the nth substance listed
Conditions: Liquid; for mass density: Vibrating tube method; for speed of sound: Frequency=3 MHz, Pulse-echo method

CCOC(F)(C(F)(F)C(F)(F)C(F)(F)F)C(F)(C(F)(F)F)C(F)(F)F (stereo not given) [2-trifluoromethyl-3-ethoxydodecafluorohexane] + CC(C)OC(C)C
Conditions	mass density, 333.15 K [kg/m3]	mass density, 343.15 K [kg/m3]	mass density, 353.15 K [kg/m3]	mass density, 363.15 K [kg/m3]	mass density, 373.15 K [kg/m3]	mass density, 383.15 K [kg/m3]	mass density, 393.15 K [kg/m3]	speed of sound, 343.15 K [m/s]	speed of sound, 353.15 K [m/s]
100 kPa, x1 = 0.375	–	1091.4	–	–	–	–	–	588	–
100 kPa, x1 = 0.5	–	1197	–	–	–	–	–	563	–
100 kPa, x1 = 0.625	–	1291.8	1271.2	–	–	–	–	550.5	–
100 kPa, x1 = 0.75	–	1376.3	1355.1	–	–	–	–	540.2	512.6
10000 kPa, x1 = 0.25	–	1000.6	986.5	972.2	957.5	942.8	927.9	–	–
10000 kPa, x1 = 0.375	–	1121.3	1105.6	1089.6	1074	1058	1041.6	–	–
10000 kPa, x1 = 0.5	–	1229.2	1212.9	1196.4	1179.6	1162.6	1145.1	–	–
10000 kPa, x1 = 0.625	–	1325.6	1308.2	1290.3	1272.3	1254.2	1235.9	–	–
10000 kPa, x1 = 0.75	–	1411.1	1393	1374.4	1355.8	1336.7	1317.8	–	–
20000 kPa, x1 = 0.25	–	1021.9	1009.3	996.8	983.8	971.3	958.4	792.6	767.9
20000 kPa, x1 = 0.375	–	1145.1	1131.2	1117.1	1103.6	1089.6	1075.7	745.6	724.5
20000 kPa, x1 = 0.5	–	1254.7	1240.1	1225.6	1210.9	1196.3	1181.2	714	692.8
20000 kPa, x1 = 0.625	–	1352.4	1337	1321.2	1305.3	1289.7	1273.8	697.6	676.5
20000 kPa, x1 = 0.75	–	1438.8	1422.7	1406.2	1389.8	1373.1	1356.7	681.6	660.7
30000 kPa, x1 = 0.25	–	1039.6	1028.2	1016.8	1005	993.8	982.1	–	–
30000 kPa, x1 = 0.375	–	1164.8	1152.3	1139.3	1127.2	1114.7	1102.2	–	–
30000 kPa, x1 = 0.5	–	1275.9	1262.7	1249.3	1236	1223	1209.4	–	–
30000 kPa, x1 = 0.625	–	1374.8	1360.8	1346.4	1331.8	1317.8	1303.4	–	–
30000 kPa, x1 = 0.75	–	1462	1447.4	1432.1	1417.3	1402	1387.3	–	–
40000 kPa, x1 = 0.25	–	1055.2	1044.4	1033.8	1022.8	1012.6	1001.8	911.7	889.5
40000 kPa, x1 = 0.375	–	1182.1	1170.2	1158.1	1147.1	1135.6	1124	858.7	841.4
40000 kPa, x1 = 0.5	–	1294.4	1281.9	1269.5	1257.2	1245.4	1232.7	822.8	804.5
40000 kPa, x1 = 0.625	–	1394.4	1381.2	1367.8	1354.2	1341.5	1328	803.3	785.2
40000 kPa, x1 = 0.75	–	1482.3	1468.5	1454.3	1440.5	1426.5	1412.8	783.8	765.7
50000 kPa, x1 = 0.25	–	1068.8	1058.7	1048.7	1038.4	1028.9	1018.7	–	–
50000 kPa, x1 = 0.375	–	1197.3	1186	1174.8	1164.3	1153.6	1142.7	–	–
50000 kPa, x1 = 0.5	–	1310.8	1298.8	1287.3	1275.8	1264.7	1252.8	–	–
50000 kPa, x1 = 0.625	–	1411.7	1399.2	1386.6	1373.8	1361.9	1349.1	–	–
50000 kPa, x1 = 0.75	–	1500.3	1487.3	1473.8	1460.8	1447.6	1434.8	–	–
60000 kPa, x1 = 0.25	–	1081.1	1071.6	1062	1052.3	1043.2	1033.7	1007.3	986.5
60000 kPa, x1 = 0.375	–	1210.9	1200.3	1189.6	1179.7	1169.5	1159.3	949.5	935.6
60000 kPa, x1 = 0.5	–	1325.4	1314.2	1303.1	1292.2	1281.8	1270.5	911	894
60000 kPa, x1 = 0.625	–	1427.3	1415.5	1403.4	1391.2	1379.9	1368	889.2	872.6
60000 kPa, x1 = 0.75	–	1516.5	1504.2	1491.2	1478.9	1466.4	1454.2	867	850.4
70000 kPa, x1 = 0.25	–	1092.4	1083.3	1074.1	1064.8	1056.2	1047.2	–	–
70000 kPa, x1 = 0.375	–	1223.4	1213.3	1203	1193.7	1184	1174.3	–	–
70000 kPa, x1 = 0.5	–	1338.9	1328.1	1317.5	1307.2	1297.2	1286.5	–	–
70000 kPa, x1 = 0.625	–	1441.4	1430.3	1418.6	1407	1396.3	1385.1	–	–
70000 kPa, x1 = 0.75	–	1531.3	1519.5	1507	1495.3	1483.3	1471.7	–	–
80000 kPa, x1 = 0.25	–	1102.8	1094.2	1085.2	1076.3	1068.1	1059.3	1089.6	–
80000 kPa, x1 = 0.375	–	1234.9	1225.2	1215.5	1206.4	1197.2	1187.7	1026.7	1015.6
80000 kPa, x1 = 0.5	–	1351.3	1340.9	1330.8	1320.8	1311.3	1300.8	987	971
80000 kPa, x1 = 0.625	–	1454.6	1443.9	1432.6	1421.5	1411.4	1400.3	963.1	947.8
80000 kPa, x1 = 0.75	–	1544.9	1533.7	1521.5	1510.3	1498.8	1487.5	938.2	923.1
90000 kPa, x1 = 0.25	–	1112.5	1104.1	1095.5	1086.9	1079	1070.8	–	–
90000 kPa, x1 = 0.375	–	1245.7	1236.2	1227	1218.3	1209.3	1200.4	–	–
90000 kPa, x1 = 0.5	–	1362.8	1352.7	1343.1	1333.5	1324.3	1314.4	–	–
90000 kPa, x1 = 0.625	–	1466.8	1456.5	1445.6	1435	1425	1414.7	–	–
90000 kPa, x1 = 0.75	–	1557.6	1546.8	1534.9	1524.3	1513.1	1502.4	–	–
100000 kPa, x1 = 0.25	–	1121.5	1113.4	1105.1	1096.9	1089.2	1081.3	1161.8	1142.6
100000 kPa, x1 = 0.375	–	1255.8	1246.6	1237.5	1229.2	1220.6	1211.9	1095.1	–
100000 kPa, x1 = 0.5	–	1373.5	1363.8	1354.5	1345.3	1336.3	1326.8	1054.1	1039.1
100000 kPa, x1 = 0.625	–	1478.2	1468.2	1457.8	1447.4	1437.8	1428	1028.7	1014.4
100000 kPa, x1 = 0.75	1580.9	1569.5	1559	1547.4	1537.2	1526.4	1516	1001.7	987.2
110000 kPa, x1 = 0.25	1138.5	1130.1	1122.1	1114.2	1106.1	1098.7	1091	–	–
110000 kPa, x1 = 0.375	1274.2	1265.3	1256.3	1247.5	1239.6	1231.2	1222.8	–	–
110000 kPa, x1 = 0.5	1393.9	1383.8	1374.2	1365.3	1356.2	1347.6	1338.4	–	–
110000 kPa, x1 = 0.625	1499.9	1489.1	1479.2	1469.1	1459.1	1449.8	1440.1	–	–
110000 kPa, x1 = 0.75	1591.8	1580.8	1570.4	1559.3	1549.4	1538.8	1528.7	–	–
120000 kPa, x1 = 0.25	1146.4	1138.2	1130.4	1122.7	1114.8	1107.7	1100.3	–	–
120000 kPa, x1 = 0.375	1282.9	1274.2	1265.4	1257.1	1249.3	1241.3	1233	–	–
120000 kPa, x1 = 0.5	1403.2	1393.3	1384.1	1375.4	1366.6	1358.3	1349.4	–	–
120000 kPa, x1 = 0.625	1509.7	1499.3	1489.7	1479.8	1470.1	1461.2	1451.6	–	–
120000 kPa, x1 = 0.75	1602.1	1591.4	1581.4	1570.4	1560.8	1550.7	1540.7	–	–
130000 kPa, x1 = 0.25	1153.9	1145.9	1138.3	1130.7	1123.1	1116.1	1108.9	–	–
130000 kPa, x1 = 0.375	1291.2	1282.7	1274.2	1265.9	1258.3	1250.6	1242.6	–	–
130000 kPa, x1 = 0.5	1412.1	1402.5	1393.5	1385	1376.4	1368.1	1359.7	–	–
130000 kPa, x1 = 0.625	1519.2	1509.1	1499.7	1490	1480.5	1471.8	1462.5	–	–
130000 kPa, x1 = 0.75	1611.9	1601.6	1591.7	1580.9	1571.6	1561.7	1552.1	–	–
140000 kPa, x1 = 0.25	1160.9	1153.3	1145.6	1138.4	1130.8	1124.2	1117	–	–
140000 kPa, x1 = 0.375	1299	1290.7	1282.4	1274.6	1267	1259.6	1251.6	–	–
140000 kPa, x1 = 0.5	1420.5	1411.2	1402.4	1394.2	1385.7	1377.9	1369.3	–	–
140000 kPa, x1 = 0.625	1528.1	1518.2	1509	1499.7	1490.4	1481.9	1472.9	–	–
140000 kPa, x1 = 0.75	1621.2	1611.2	1601.4	1591	1581.8	1572.3	1562.7	–	–
